Three compounds from US20260097111A1, “ETHER LIPIDS FOR HYPERACTIVATION OF MAMMALIAN DENDRITIC CELLS” (priority 2022, published 2026) can be followed below.

Entries after “also recorded” stand apart in the source; their conditions may differ. Read-outs that look alike come from different tables or passages of the source.

The subject of data set [1] is human monocyte-derived dendritic cells (moDCs). As to the kind of experiment: IL-1β secretion by human moDCs treated with lipid and R848. The conditions noted are these: for IL-1β secretion: human moDCs. In kind it is cell-based. The procedure: (§1) Human monocytes were isolated from Leukopaks purchased from Miltenyi using the StraightFrom Leukopak CD14 microbead kit (Miltenyi). Isolations were completed following manufacturer's instructions. Monocytes were then aliquoted and frozen in fetal bovine serum containing 10% dimethyl sulfoxide. For studies with monocyte-derived dendritic cell (moDC) cultures, monocytes were thawed and cultured in RPMI medium containing 10% FBS, 50 units/mL penicillin, […] streptomycin, 2 mM L-glutamine, 1 mM sodium pyruvate, […] beta-mercaptoethanol, 10 mM HEPES, and Gibco MEM non-essential amino acids (R10 media). To differentiate monocytes into moDCs, recombinant human GM-CSF (50 ng/mL) and IL-4 (25 ng/mL) were added to R10 media. Cells were cultured for 6 days with GM-CSF and IL-4, with an additional cell feeding with R10 containing GM-CSF and IL-4 on day 3.
Six days after differentiation, moDC were collected and counted. Cells were plated into 96-well flat-bottom plates at 1×10^5 cells/well. Cells were treated with or without 1 μg/mL R848 (final) and with or without a hyperactivating lipid (or vehicle control). In some experiments, MCC950, an inhibitor of the NLRP3 inflammasome, was added at a final concentration of 10 uM. In some experiments, nigericin, which causes NLRP3 inflammasome activation and subsequent pyroptosis, was used as a positive control at 20 uM. Cells and stimuli totaled a final volume of […].
Lipid stocks were then further diluted in PBS to treat cells.
(§2) After an overnight incubation, cells and culture supernatant were used for downstream readouts. One hundred and fifty microliters of cell supernatant were collected. Viability was measured using the CellTiter-Glo assay (Promega) which measures ATP content from cells. Fifty microliters of CellTiter-Glo reagent were added to 50 μL of cells. Luminescence was quantified on a SpectraMax m5e plate reader using an integration time of 500 milliseconds. Viability data were set relative to control conditions where cells were treated with only R848. To measure IL-1β secretion, the human IL-1β Lumit kit (Promega) was used to assay cell culture supernatant. Culture supernatant samples were incubated with enzyme-linked antibodies in a 384-well plate for 1 hour before addition of luminescent substrate. Samples were measured for luminescence with an integration time of 500 milliseconds. IL-1β concentrations of samples was determined by interpolation from a standard curve using 4-parameter logistic regression analysis. Studies were performed on three different human donor samples, and each biological condition was tested in triplicate. Graphed data represent means from each donor.
as §1, with “Human moDC Production. Human” for “Human”, “(Miltenyi) according to the” for “(Miltenyi). Isolations were completed following”, “To differentiate” for “For studies with”, “pyruvate, and” for “pyruvate,”, “beta-mercaptoethanol” for “beta-mercaptoethanol, 10 mM HEPES, and Gibco MEM non-essential amino acids”
Hyperactivating Lipid Formulation—Compound 10. Lipid stocks were formulated at 200 μg/mL lipid in 5% Kolliphor P407 (KP407) in PBS.

Data set [2] relates to human moDCs. Description: Cell viability of human moDCs (CellTiter-Glo). The settings on record: human moDCs, 20.6 μM lipid; FIG. 19. The class given is cell-based. The procedure: as §2
Measurement of Cytokine Secretion and Cell Viability. After an overnight incubation, cells and culture supernatant were used for downstream readouts. One hundred and fifty microliters of cell culture supernatant were collected. Viability was measured using the CellTiter-Glo assay (Promega) which measures ATP content from cells. Fifty microliters of CellTiter-Glo reagent were added to 50 μL of cells. Luminescence was quantified on a SpectraMax m5e plate reader using an integration time of 500 milliseconds. Viability data were set relative to control conditions where cells were treated with only R848. To measure IL-1β secretion, the human IL-1β Lumit kit (Promega) was used. […] Samples were measured for luminescence with an integration time of 500 milliseconds. IL-1β concentrations of samples was determined by interpolation from a standard curve using 4-parameter logistic regression analysis. […]
(In ATP-based viability assays light output follows the ATP content of the culture.)

Another data set in a line: Solubility observations. In kind it is physicochemical.
Data set [3] relates to human moDCs. As to the kind of experiment: IL-6 secretion by human moDCs. The class given is cell-based.
The next data set has as its system human moDC. As to the kind of experiment: IL-1β ELISA, human moDC treated with R848, DGP, MCC950. In kind it is cell-based. The settings on record: only R848 2.85 μM, donor HD94. The procedure: Monocyte Isolation, Storage, and Differentiation into moDC. Human leukapheresis blood products were freshly obtained from AllCells via same day or overnight shipping at 4° C. Miltenyi StraightFrom Leukopak CD14 MicroBead isolation kits were used according to manufacturer instructions to isolate CD14+ monocytes. Briefly, leukopaks ranging in quantity from 5×10^9 to 1×10^10 total nucleated cells were evenly aliquoted into 50 mL conical tubes. Cells were incubated with CD14 microbeads and then loaded on the MultiMACS using the program “Possel2”. After washing out the negative population, CD14+ cells were eluted from the columns and counted. An aliquot of monocytes was used to stain for purity of cells to ensure that isolated live cells were […] CD11c+CD14+ by flow cytometry. […] Vials were placed in CoolCell freezing containers and placed in a −80° C. freezer and stored no longer than 1 week. Frozen cells were transferred for long-term storage to the vapor phase of a liquid nitrogen freezer until use.
To differentiate monocytes into moDC, vials of cells were taken out of the liquid nitrogen freezer and quickly thawed in a 37° C. water bath. Cells were diluted ten-fold in warmed R10++ media containing 50 units/mL benzonase. R10++ media was composed of RPMI 1640 media containing 10% fetal bovine serum, 50 units/mL penicillin, […] streptomycin, 2 mM L-glutamine, 1 mM sodium pyruvate, […] beta-mercaptoethanol, 10 mM HEPES, and 1% Gibco MEM non-essential amino acids. After gentle mixing by inversion of tubes, cells were incubated at 37° C. for 10 min. Cells were pelleted at 400×g for 5 min and supernatant was aspirated. Cells were resuspended in R10++ media and counted on the MoxiGo by diluting an aliquot in PBS containing a final concentration of 2.5 μg/mL propidium iodide. Cells were plated in T75 culture flasks at 3-6×10^7 cells per flask in a total of 20 mL R10++ media containing a final concentration of 50 ng/mL GM-CSF and 25 ng/mL IL-4. Three days after the start of culture, an additional 10 mL R10++ containing 50 ng/mL GM-CSF and 25 ng/mL IL-4 was added to each flask.
Six days after start of differentiation. R10++ media containing cells were placed into 50 mL conical tubes. Flasks were washed with an additional 10 mL PBS and also collected. […] Cells were resuspended in R10++ media and counted on the MoxiGo by diluting an aliquot in PBS containing a final concentration of 2.5 μg/mL propidium iodide. Cells were then adjusted to 1×10^6 cells/mL in R10++ media.
moDC Treatment. Human moDC were plated at 1×10^5 cells/well in 96-well flat-bottom tissue culture plates in R10++ media by adding 100 μL of cells per well. To each well, a 25 μL solution of R10++ containing 400 ng/mL GM-CSF and 200 ng/mL IL-4 was added.
Lyophilized R848 stocks were prepared as described above and frozen at −80° C. An aliquot of frozen R848 was thawed and further diluted to 11.4 μM in R10++ (4 μg/mL R848). Cell culture conditions receiving R848 treatment had 50 μL added to wells. For wells not receiving R848, 50 μL R10++ was added to wells. Lyophilized MCC950 was prepared as described above and stored at −20° C. MCC950 was further diluted to 40 uM in a prepared R10++ solution containing 11.4 μM R848. Cells receiving R848 and MCC950 treatment had 50 μL added to wells. Final concentrations of R848 and MCC950 in a total 200 μL volume were respectively 2.85 μM and 10 μM.
A4.44% solution of KP407 dissolved in sterile, distilled water was prepared at a temperature of 4° C. […]

Data set [4] is described as follows: Serum chemokines and cytokines after SC injection. In kind it is in vivo, mice. The conditions noted are these: mouse, in vivo, sc. On the procedure:
Lipid Preparation. […] Lipids were used for chemical injections or DC treatment within one hour of their preparation.
Subcutaneous (SC) Injection. Mice were placed under Isoflurane for a few min for anesthesia. Tubes containing the chemicals were vortexed for 30 seconds, then loaded with a 1 mL Sub-Q syringe.
Blood Collection. Mice were placed under Isoflurane for approximately 10 min for anesthesia. Using a 21G needle, mice were gently poked through the skin to the submandibular space to induce bleeding. Five-Six drops were collected in a mini collect K2EDTA blood collection tube. Blood samples were transported back to Corner Therapeutics lab on ice. The blood was then centrifuged at 1500×g for 5 min. After centrifugation, blood was collected into a 96-well round bottom plate and stored at −80° C.
Measurement of Serum Chemokines and Cytokines. Secreted cytokines were measured in the supernatant by cytokine bead array using the LEGENDplex™ Mouse Murine Proinflammatory Chemokine, Murine Cytokine Release Syndrome Legendplex and LEGENDplex™ Mouse Cytokine Panel 2 (Biolegend) according to the manufacturer's protocol. Data were collected using a Quanteon Novocyte flow cytometer and analyzed using the cloud-based software provided by Biolegend.

For data set [5], the system named is human moDCs. The conditions noted are these: for IFNα2: R848 stimulation, FIG. 33B.
Where [6] appears, read: 41.25 μM lipid with R848, FIG. 17.

A word on the cell viability: it is the share of living cells, or the viability signal relative to a control. Lower therefore signals a greater loss of cells. Regarding `CCCCCCCCCCCCCCCCCCCCCCOC[C@@H](O)COP(=O)([O-])OCC[N+](C)(C)C` [Compound 1, 1-docosyl-sn-glycerol-3-phosphocholine], the “hyperactivation of human dendritic cells” value in data set [1] (41.25 μM lipid with R848 (Compound 1 also 20.6 μM)) is given as “hyperactivated dendritic cells”. For the same compound, the IL-1β secretion result is “induced IL-1β secretion that was dependent upon R848 stimulation and the NLRP3 inflammasome” in data set [1] (20.6 μM lipid, FIG. 20); “significantly increased IL-1β secretion” in data set [1] (setting [6]); “also induced IL-1β secretion; also recorded: induced less IL-1β than 22:0 lyso PC” in data set [1] (24 hours, lipid (equimolar, in 0.5% KP407) with R848, FIG. 1B, listed as DGPC). In addition, the cell viability in the data set with human moDCs [2] was over 75%. The solubility result in “Solubility observations” is reported as “can be dissolved in ethanol, methanol, or chloroform”.
As for “1-behenoyl-2-hydroxy-sn-glycero-3-phosphocholine [22:0 lyso PC, reference compound]”, the IL-1β secretion result is “significant increase in IL-1β” in data set [1] (setting [6]); “produced significantly more IL-1β” in data set [1] (41.25 μM lipid with R848 vs vehicle control, FIG. 8); “robustly induced IL-113 secretion” in data set [1] (41.3 uM lipid with R848, FIG. 11); “IL-1β was secreted” in data set [1] (24 hours, lipid (equimolar, in 0.5% KP407) with R848, FIG. 1B); “induced a detectable amount of IL-1β” in data set [1] (24 hours, lipid in 4% KP407 with R848, FIG. 2B). Also, in “Solubility observations”, the solubility result is reported as “can be dissolved in ethanol, methanol, or chloroform”.
On to `CCOCc1nc2c(N)nc3ccccc3c2n1CC(C)(C)O` [Compound R848, resiquimod, reference compound], for which, in the data set with human moDCs [3] (human moDCs stimulated with R848, FIG. 10), the “IL-6 in cell culture supernatant” value is “greater than 20,000 μg/mL”. The IL-6 secretion result with human moDCs [3] (human moDCs, R848 with vehicle, no hyperactivating lipid, FIG. 16) is reported as “approximately 20,000 μg/mL”. The IL-1β with human moDC is 288 µg/mL. Also, the “cytokine and chemokine release in the serum” value in data set [4] is listed as “returned to homeostasis (PBS levels) by 24 hours post injection”. The IFNα2 in the data set with human moDCs [5] (donor HD92) was 94 µg/mL; with human moDCs [5] (donor HD93) it was 82 µg/mL. For the same compound, in the data set on human moDCs [5] (donors HD92 and HD93, FIG. 32C), the IL-12p70 result is “at least 100 μg/mL”.
